Measured values: patent publication US7858608B2, “Bile acid derivatives as FXR ligands for the prevention or treatment of FXR-mediated diseases or conditions” (Intercept Pharmaceuticals, Inc., priority 2006, dated 2010)
Where two headings read alike, the source gives them in different places.

What was measured:
[1] = system: FXR regulated genes (SHP, CYP7α1, SREPB-1c, FAS, BSEP); conditions: human, 18 h, 10 μM
From the text: Human hepatocyte cell line HepG2 was used for these studies.
The effects of these ligands on FXR responsive genes was then investigated by quantitative reverse transcription PCR (qRT-PCR).

HepG2 cells = experiment: Direct cell toxicity on exposure of HepG2 cells; type: cell-based, human; conditions: HepG2 cells exposed to the ligands
FXR [2] = target: T1, FXR (Homo sapiens, UniProt Q96RI1); experiment: Cell-free FRET assay, recruitment of the SRC1 peptide to FXR; type: biochemical; conditions: for Potency in activating FXR relative to CDCA (concentration for Scr-1 recruitment lower than CDCA): cell-free FRET assay, versus CDCA
T1 sequence (Q96RI1 1-486): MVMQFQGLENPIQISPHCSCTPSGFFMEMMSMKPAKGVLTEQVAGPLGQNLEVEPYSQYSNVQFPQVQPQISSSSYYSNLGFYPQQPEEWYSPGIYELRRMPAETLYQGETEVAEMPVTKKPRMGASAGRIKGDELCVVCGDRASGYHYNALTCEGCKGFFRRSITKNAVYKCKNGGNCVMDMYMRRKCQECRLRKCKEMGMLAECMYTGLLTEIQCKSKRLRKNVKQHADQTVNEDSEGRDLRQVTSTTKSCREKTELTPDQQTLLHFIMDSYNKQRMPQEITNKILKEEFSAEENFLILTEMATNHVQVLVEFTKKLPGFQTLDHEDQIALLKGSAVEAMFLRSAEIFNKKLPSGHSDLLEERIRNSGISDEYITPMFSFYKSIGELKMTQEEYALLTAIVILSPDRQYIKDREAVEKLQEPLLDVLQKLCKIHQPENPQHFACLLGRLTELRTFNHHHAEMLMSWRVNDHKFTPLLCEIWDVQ
From the text: This technology, a cell free assay, is described in […]., et al. J Med Chem. 2002 15; 45:3569-72).

FXR [3] = target: T1, FXR; experiment: Cell transfection (transactivation) assay in HepG2 cell line; type: cell-based; design: expressed in transfected cells; host or cells: HepG2; conditions: HepG2 cells, 1 μM
Experimental: It was also evaluated if compound (Ia) modulated FXR-regulated genes in a cellular assay using a human hepatocyte cell line (HepG2). […] A detailed description of these methods can be found in the following reference: Fiorucci S., et al. Gastroenterology 2004.

[4] = system: FXR or other nuclear receptors; experiment: Liver cells transfected with viral constructs carrying FXR or other nuclear receptors upstream of the luciferase gene; type: cell-based; conditions: mouse, rat, and human hepatocytes, luciferase reporter

Row | SMILES | Induction of SHP expression [1] | Reduction of the expression of CYP7α1 mRNA [1] | Direct cell toxicity (HepG2 cells) | melting point [°C] | Induction of BSEP mRNA expression [1] | Efficacy (relative recruitment of the SRC1 peptide to FXR where CDCA = 100%) (FXR [2]; FRET, human FXR, mean ± SE, n = 4) [%] | EC50 (FXR [2]; FRET, human FXR, mean ± SE, n = 4, read-out: Cell-Free Assay EC50) [nM] | Potency in activating FXR relative to CDCA (concentration for Scr-1 recruitment lower than CDCA) (FXR [2]) | Potency in activating FXR relative to CDCA (concentration for Scr-1 recruitment lower than CDCA) (FXR [2]; listed as compound (Ia)) [fold] | EC50 (FXR [2]; concentrations ranging from 1 nM to 100 μM, read-out: EC50 as FXR ligand in cell free FRET assay (Table 2 summary)) [nM] | Transactivation of FXR (FXR [3]) | Transactivation of FXR (FXR [3]; listed as compound (Ia)) | Selectivity for FXR over other nuclear receptors [4]
1 | C[C@H](CCC(=O)O)[C@H]1CC[C@H]2[C@@H]3[C@H](O)C[C@@H]4C[C@H](O)CC[C@]4(C)[C@H]3CC[C@]12C [CDCA, chenodeoxycholic acid, reference compound] | 2-3 fold | 60-70% | no direct cell toxicity | – | – | – | – | – | – | – | – | – | –
2 | CC[C@H]1[C@@H](O)[C@@H]2[C@H](CC[C@]3(C)[C@@H]([C@H](C)CCC(=O)O)CC[C@@H]23)[C@@]2(C)CC[C@@H](O)C[C@@H]12 [Compound 6-ECDCA, 6-ethyl-chenodeoxycholic acid] | – | – | no direct cell toxicity | – | – | – | – | – | – | – | – | – | –
3 | C[C@H](CCNC(=O)OC/C=C/c1ccccc1)[C@H]1CCC2C3C(CC[C@@]21C)[C@@]1(C)CC[C@@H](O)CC1C[C@H]3O (stereo partly drawn) [Compound (Ia), 23-N-Carbacinnamyloxy-3α,7α-dihydroxy-5β-norcholanylamine] | – | – | no direct cell toxicity | 79 to 84 | approximately 13 fold | 66 | 592 | approximately 20 fold | ~20 | ~500 | transactivation | transactivates FXR | selective FXR ligand
